Laboratory results from patent US6927231B2, “Use of creatine for the amelioration of oxidative stress” (2458781 Canada Inc., priority 2001, dated 2005).
Where “and” joins values, the source holds several entries; their conditions need not be identical. Identical values can stand only once.

Tests used:
[1] = Acid-soluble thiol concentration in the plasma during N-acetylcysteine ingestion; type: in vivo, human; settings: healthy subject; NAC approximately 0.1-0.4 g per week, periods 1, 2, 5 and 6
Protocol: (§1) During the periods 1,2,5 and 6, the subject ingested small doses of N-acetylcysteine (NAC) (approximately 0.1-0.4 g per week) to adjust the acid-soluble thiol concentration in the plasma to an average value of about 15 μM, which corresponds approximately to the mean of healthy young subjects (see FIG. 1). In period 2, the subject ingested 3-4 times per week creatine at a dosis of approximately 3-4 g per week. In the period 4 and 6, the subject ingested creatine 6-7 times per week at a mean dose of approximately 6-8 g per week. Creatine was discontinued twice for one week each after the cystine level fell to a value of 40 and 41 μM, respectively. […] The P values illustrate the statistical significance for the differences between different treatment periods.

[2] = Plasma cystine concentration of a subject during creatine treatment periods; type: in vivo, human; settings: healthy subject
Description: FIG. 3 illustrates the results of a study that is described in more detail in example 1. The ordinate (c) describes the plasma cystine concentration in μMol. The columns 1-6 describe the mean plasma cystine concentrations during 6 successive treatment periods of a subject as described in example 1.
as §1

| Structure (SMILES) | acid-soluble thiol concentration in the plasma, average value [1] | cystine level at which creatine was discontinued ([2]; creatine discontinued twice for one week each after the level fell to this value) | plasma cystine level ([2]; relatively small oral doses of creatine (approx. 3-8 g per week) during a total period of about 2.5 years, level corresponds to 20-35 year-old healthy subjects) |
| --- | --- | --- | --- |
| CC(=O)N[C@@H](CS)C(=O)O [N-acetylcysteine] | about 15 μM |  |  |
| CN(CC(=O)O)C(=N)N [creatine] |  | 40 µM and 41 µM | approximately 50 μ |
